Reference: patent US12691107B2, “Methods for the treatment and prevention of lung infections caused by gram-positive bacteria, fungus, or virus by administration of tafenoquine” (priority 2020, dated 2026)
Read-outs that look alike come from different tables or passages of the source.

Experiments:
Rhizopus arrhizus = assay: Antifungal MIC (RPMI-1640 microdilution); format: cell-based
Candida auris = assay: Antifungal MIC (RPMI-1640 microdilution); format: cell-based
Blastomyces dermatitidis = assay: Antifungal MIC (RPMI-1640 microdilution); format: cell-based
Candida glabrata = assay: Antifungal MIC (RPMI-1640 microdilution); format: cell-based
Pneumocystis = conditions: cited from earlier work
[1] = Maximum tolerated dose in uninfected immunosuppressed mice; format: in vivo, ICR mice
Protocol: Tafenoquine succinate powder was supplied in the form of the commercial API used to make 100 mg ARAKODA tablets [therefore it was >99.8% pure and contain no excipients]. Four dosing solutions were prepared, and the concentrations of tafenoquine succinate were adjusted based on the mean mouse weight at the start of the study in order to achieve dosing groups of 2.5, 5, 10 and 20 mg/kg tafenoquine base respectively [note that tafenoquine succinate contains 79.6% tafenoquine base].
The dosing solutions was in the form of a tafenoquine succinate suspension in the drug vehicle. A large batch [>1 liter] of the drug vehicle [0.2% v/v Tween 80 in 1% v/v methyl cellulose in sterile water] was prepared at least 96 h before the first dose was administered and kept refrigerated [4° C.]. During preparation, the batch of drug vehicle was stirred for sufficiently long to ensure a uniform composition [4 to 24 h of stirring with a magnetic stir bar may be required].
Dosing solutions were prepared no more than 72 h prior to the first dose. Tafenoquine powder was weighed out separately for each dosing solution. After weighing, tafenoquine was transferred into an appropriately sized, transparent tube [or equivalent] containing the desired volume of drug vehicle, and gently shaken to allow development of a uniform suspension without bubble formation. The tubes containing dosing solutions were stored at [4° C.] wrapped in aluminum foil until use. Prior to use, the dosing solutions were inverted gently as required to resuspend the tafenoquine and allowed to warm temperature. Use of transparent tubes allowed for visual confirmation that an even resuspension of the drug has had been achieved prior to dosing. The above resuspension procedure was conducted the first time 48 h prior to the first day of dosing to confirm there have been no preparation issues.
Mouse Strain—Outbred male ICR mice weighing ~28 grams were used. Mice were housed 5 per cage and had access to food and water ad libitum.
Immune Status—Standard neutropenic immunosuppression regimen in the PK/dose tolerability study was used, which was also used in the in vivo efficacy model. This regimen utilizes cyclophosphamide and cortisone acetate to render animals immunosuppressed prior to aerosolized inoculation. • Cyclophosphamide (25 mg/mL) was dissolved by the addition of sterile water to the vial. This was administered as a dose of 250 mg/kg two days prior to inoculation. […]
Mouse Assessment—Throughout the studies, mice were observed multiple times per day and their overall health determined. […]

Plasmodium cynomolgi = conditions: for three days; cited from earlier work
P. falciparum = conditions: seven strains, three repeat assays; cited from earlier work
SARS-CoV-2 = assay: Calculation of RLTEC and MPEC50 for tafenoquine against SARS-CoV-2
Protocol: (§1) Pneumocystis was used as a model organism against which to set minimum requirements for the maximum acceptable in vitro EC50 of tafenoquine against SARS-CoV-2 in vitro. Pneumocystis was selected because it is the only lung pathogen for which both in vitro and in vivo data are available for tafenoquine. The maximum lung tissue concentration [LTsscmaxrats] at the minimum dose of tafenoquine necessary to inhibit the growth of Pneumocystis in vivo in a treatment modality was calculated using relevant data derived from the scientific literature [see Table 7]. The ratio of that concentration to the EC50 against Pneumocystis in vitro RLTEC was determined [see Table 7]. The plasma steady state Cmax [Psscmaxhumans] at the approved prophylactic dose is known from the ARAKODA product insert [60 Degrees Pharmaceuticals. 2018. Product Insert for ARAKODA.]. The maximum steady state lung tissue concentration [LTsscmaxhumans] of that dose was determined using relevant metrics from the literature. The maximum permissible EC50 (“MPEC50”) was then defined by dividing the LTsscmaxhumans by the RLTEC [Table 7].
(§2) The steady state Cmax at the approved prophylactic dose is known based on prior modeling. The maximum steady state lung tissue concentration of that dose was estimated to be 389 microM [Table 7].
(§3) [Note: These calculated values provided in this example were recalculated and updated in the present application and therefore may differ from what is presented in some cross-referenced U.S. Provisional Applications.]

[2] = as above; conditions: human, lung/whole blood; assumed to be the same as rats; read-out: Ratio of lung to whole blood concentration for humans
Protocol: as §1, §2, §3

GPCMV strain 22122 = assay: GPCMV qPCR assay in Guinea Pig Lung cells; format: cell-based; conditions: Cavia porcellus, 168 h, 7 d
[3] = system: RSV, MERS coronavirus and influenza A H1N1; format: cell-based

In the case of `COc1cc(C)c2c(Oc3cccc(C(F)(F)F)c3)c(OC)cc(NC(C)CCCN)c2n1.O=C(O)CCC(=O)O` (stereo not shown) [Tafenoquine Succinate], the MIC50 (Rhizopus arrhizus; read-out: MIC 50% inhibition, isolate 99-880) is reported as 4 µg/mL, the MIC50 (Rhizopus arrhizus; read-out: MIC 50% inhibition, isolate 99-892) is reported as 4 µg/mL and the MIC50 (Rhizopus arrhizus; read-out: MIC 50% inhibition, isolate RAI) is reported as 8 µg/mL. The MIC (Rhizopus arrhizus; read-out: MIC 100% inhibition, isolate 99-880) was 4 µg/mL, the MIC (Rhizopus arrhizus; read-out: MIC 100% inhibition, isolate 99-892) was 4 µg/mL and the MIC (Rhizopus arrhizus; read-out: MIC 100% inhibition, isolate RAI) was 16 µg/mL. It also gave an MIC50 (Candida auris; Candidozyma auris, read-out: MIC 50% inhibition, isolate DI17-46) of 4 µg/mL, an MIC50 (Candida auris; Candidozyma auris, read-out: MIC 50% inhibition, isolate DI17-47) of 4 µg/mL and an MIC50 (Candida auris; Candidozyma auris, read-out: MIC 50% inhibition, isolate DI17-48) of 2 µg/mL. The MIC (Candida auris; Candidozyma auris, read-out: MIC 100% inhibition, isolate DI17-47) was 4 µg/mL, the “MIC 100% inhibition” value (Candida auris; isolate DI17-46) was 4 µg/mL and the “MIC 100% inhibition” value (Candida auris; isolate DI17-48) was 4 µg/mL. The MIC50 (Blastomyces dermatitidis; read-out: MIC 50% inhibition, isolate Blasto1) was 1 µg/mL, the MIC50 (Blastomyces dermatitidis; read-out: MIC 50% inhibition, isolate Blasto2) was 4 µg/mL and the MIC50 (Blastomyces dermatitidis; read-out: MIC 50% inhibition, isolate Blasto3) was 8 µg/mL. It also gave an MIC (Blastomyces dermatitidis; read-out: MIC 100% inhibition, isolate Blasto1) of 2 µg/mL, an MIC (Blastomyces dermatitidis; read-out: MIC 100% inhibition, isolate Blasto2) of 4 µg/mL and an MIC (Blastomyces dermatitidis; read-out: MIC 100% inhibition, isolate Blasto3) of 8 µg/mL. For the same compound, the MIC50 (Candida glabrata; Nakaseomyces glabratus, read-out: MIC 50% inhibition, isolate 05-62) was 8 µg/mL, the MIC50 (Candida glabrata; Nakaseomyces glabratus, read-out: MIC 50% inhibition, isolate 05-761) was 8 µg/mL and the MIC50 (Candida glabrata; Nakaseomyces glabratus, read-out: MIC 50% inhibition, isolate CG3) was 8 µg/mL. The MIC (Candida glabrata; Nakaseomyces glabratus, read-out: MIC 100% inhibition, isolate 05-62) was 8 µg/mL, the “MIC 100% inhibition” value (Candida glabrata; isolate 05-761) was 8 µg/mL and the “MIC 100% inhibition” value (Candida glabrata; isolate CG3) was 8 µg/mL.

For `COc1cc(C)c2c(Oc3cccc(C(F)(F)F)c3)c(OC)cc(NC(C)CCCN)c2n1` (stereo not shown) [Tafenoquine, N(4)-[2,6-Dimethoxy-4-methyl-5-[3-(trifluoromethyl)phenoxy]quinolin-8-yl]pentane-1,4-diamine], the “Approximate EC50 of tafenoquine against Pneumocystis in vitro” value (Pneumocystis) is given as ~1 µg/mL, the “mice moribund prior to the study endpoint” value ([1]; 10 mg/kg group) is given as 2 of 21 and the “mice moribund prior to the study endpoint” value ([1]; 20 mg/kg group) is given as 4 of 21. For the same compound, the tolerability ([1]; 2.5 and 5.0 mg/kg oral, daily) was “well-tolerated”, the “mouse weights on days 7/8 versus vehicle control” value ([1]; higher dose groups (10 and 20 mg/kg)) was “these differences were not significant” and the “dose required to eliminate the replicating blood stage forms” value (Plasmodium cynomolgi) was 6 mg/kg/day. The “dose required to kill the quiescent hypnozoites” value (Plasmodium cynomolgi) was 0.6 mg/kg/day, the “fold more potent than primaquine (average 50% inhibitory concentrations)” value (P. falciparum) was 7.1 fold and the “LTsscmaxhumans (maximum steady state lung tissue concentration)” value (SARS-CoV-2; approved prophylactic dose) was 389 µM. The “LTcmaxrats (maximum lung tissue concentration)” value (SARS-CoV-2; plasma Cmax multiplied by 2.6 and 250) was 23,296 ng/ml, the Kp [2] was 250 and the EC50 (GPCMV strain 22122) was > 6 µM. For the same compound, the antiviral activity [3] was “too cytotoxic to the cell lines used to determine whether antiviral activity was present”.
